Reference: patent publication US6143875A, “Antibody to DNase involved in apoptosis” (priority 1994, dated 2000)
Changes are numbered by the printed parent chain. Where “and” joins values, the source holds several entries; their conditions need not be identical. Equal values may be shown once.

Legend:
DNase γ = molecular target: T1, DNase γ (Rattus norvegicus, UniProt O89107); assay: DNase (endonuclease) activity assay, HeLa S3 nuclei as substrate (Assay 1); format: biochemical; details: for DNase activity (%) γ: optimal mixture =100%; for optimal concentration for full DNase γ activity: both Ca2+ and Mg2+ required, other cation at 3 mM
T1 sequence (O89107 26-310): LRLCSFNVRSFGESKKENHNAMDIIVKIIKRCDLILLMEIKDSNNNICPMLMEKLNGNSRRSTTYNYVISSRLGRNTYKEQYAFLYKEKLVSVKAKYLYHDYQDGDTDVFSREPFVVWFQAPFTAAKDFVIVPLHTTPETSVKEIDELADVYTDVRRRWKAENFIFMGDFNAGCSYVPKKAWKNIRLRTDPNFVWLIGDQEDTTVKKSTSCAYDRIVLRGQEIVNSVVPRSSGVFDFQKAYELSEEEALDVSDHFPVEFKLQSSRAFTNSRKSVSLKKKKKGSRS
Experimental: (§1) The activity of endonuclease (DNase) can be assayed by observing fragmentation of chromosomal DNA in the nucleus on 2% agarose gel electrophoresis using, as a substrate, the nucleus of HeLa S3 cell (human cervical carcinoma epithelial cell) which is completely free of endogenous endonuclease [Biochem. Biophys. Res. Commun. 194, (1993), pp, 30-31].
(§2) To be specific, a reaction mixture (30 μl) of HeLa S3 cells (1.67×10^7 /ml) and DNase fraction is incubated at 37° C. for 60 minutes and the reaction is stopped by cooling same on ice. Then, the reaction mixture after reaction is centrifuged at 20,000× g for 20 seconds, and the precipitated nuclei are dissolved in a lysis buffer [50 mM Tris-HCl (pH 7.8), 10 mM EDTA, 0.5% w/v N-lauronyl sarcosylate Na]. The obtained DNA is thoroughly treated with 0.5 mg/ml RNase A for 20 minutes and with 0.5 mg/ml proteinase K for 30 minutes, after which they are subjected to 2% agarose gel electrophoresis. […] The ratio of fragmentation (percent fragmentation) is calculated from the density of DNA fragments with a molecular weight of less than 5 kb.
(§3) As a suitable reaction solution for the assay of the activity of DNases α and β, 50 mM MES-NaOH (-pH 5.6) buffer containing 3 mM MgCl2, 1 mM 2-mercaptoethanol and 0.1 mM PMSF is used. As a suitable reaction solution for the assay of the activity of DNase γ, 50 mM MOPS-NaOH (pH 7.2) buffer containing 3 mM CaCl2, 3 mM MgCl2, 1 mM 2-mercaptoethanol and 0.1 mM PMSF is used.
(§4) Effects of divalent cations on the activity of DNase α, […] were examined. To be specific, the effect of Mg^2+ was examined by assaying the activity of purified DNases α, β and γ in the presence of 3 mM CaCl2 with increasing concentrations of MgCl2. The effect of Ca^2+ was examined by assaying the activity of DNases α, β and γ purified in the same manner, with increasing concentrations of CaCl2 in the presence of 3 mM MgCl2. The effect of Zn^2+ was examined in 50 mM […] (pH 5.6) buffer containing 3 mM MgCl2, 1 mM 2-mercaptoethanol and 0.1 mM PMSF with increasing concentrations of ZnCl2 with regard to DNases α and β, and it was examined in 50 mM MOPS-NaOH (pH 7.2) buffer containing 3 mM CaCl2, 3 mM MgCl2, 1 mM 2-mercaptoethanol and 0.1 mM PMSF, with increasing concentrations of ZnCl2 with regard to DNase γ. The results are shown in FIG. 8, FIG. 8B, and FIG. 8C. As a result, DNase γ required both Ca^2+ and Mg^2+ for full activity, wherein the optimal concentration of the both was 1-3 mM (FIG. 8A and FIG. 8B). DNase γ was sensitive to Zn^2+, and its activity was inhibited by 50% by Zn^2+ with a low concentration of 40 μM (FIG. 8c).
(§5) The activity of DNases α and β was calculated relative to the endonuclease activity which was assayed using HeLa S3 cell nuclear chromatin DNA as a substrate and 50 mM MES-NaOH (pH 5.6) buffer containing 3 mM MgCl2, 1 mM 2-mercaptoethanol and 0.1 mM PMSF as a reaction solution, and taken as 100%; and the activity of DNase γ was calculated relative to the endonuclease activity which was assayed using HeLa S3 cell nuclear chromatin DNA as a substrate and 50 mM MOPS-NaOH (pH 7.2) buffer containing 3 mM CaCl2, 3 mM MgCl2, 1 mM 2-mercaptoethanol and 0.1 mM PMSF as a reaction solution, and taken as 100%. In the Table, "-" means deletion of said components from the above-mentioned optimal reaction mixture and "+" means addition of said components to the above-mentioned optimal reaction mixture.

DNase α = assay: as above; format: biochemical, rat; details: for effect of divalent cation on DNase α activity: increasing concentrations of MgCl2 or CaCl2
Experimental: as §1, §2, §3, §4, §5

DNase β = assay: as above; format: biochemical, rat; details: for effect of divalent cation on DNase β activity: increasing concentrations of MgCl2 or CaCl2
Experimental: as §1, §2, §3, §4, §5

[1] = test system: HeLa S3 cell nuclear chromatin DNA; assay: Endonuclease activity of purified DNases in HeLa S3 nuclear assay system; format: biochemical, human
Experimental: as §1, §2, §3
The optimal pH for the activity of DNases α, β and γ was determined by assaying HeLa S3 nuclei in various buffers from acidic to basic (Reference Example 3, Assay 1) and calculating from the percentage of DNA fragmentation.
as §5

[2] = test system: DNA derived from HeLa S3 cell nuclei; assay: End labeling method, DNA cleavage mode; format: biochemical, human; details: 3' and 5' end labeling with/without alkaline phosphatase
[3] = +Mn2+ 3 mM, -Mg2+/Ca2+, optimal mixture =100%
[4] = +3 mM added to optimal reaction mixture (=100%)
[5] = +aurintricarboxylate 30 μM, optimal mixture =100%
[6] = +aurintricarboxylate 100 μM, optimal mixture =100%
[7] = +Zn2+ 0.1 mM, optimal mixture =100%
[8] = increasing ZnCl2 in pH 5.6 buffer, 3 mM MgCl2, read-out: Inhibition by Zn2+: IC50
[9] = up to the concentration of 1 mM

For [Mn+2] [Mn^2+], the “DNase activity (%) γ” value (DNase γ; +Mn2+ 3 mM, -Mg2+/Ca2+) was 45%, the “DNase activity (%) α” value (DNase α; [3]) was 104% and the “DNase activity (%) β” value (DNase β; [3]) was 103%.

For [Ca+2].[Cl-].[Cl-] [Ca^2+], the “optimal concentration for full DNase γ activity” value (DNase γ) was 1 to 3 mM, the “DNase activity (%) α” value (DNase α; [4]) was 101% and the “effect of divalent cation on DNase α activity” value (DNase α) was “not influenced”. The “DNase activity (%) β” value (DNase β; [4]) was 104% and the “effect of divalent cation on DNase β activity” value (DNase β) was “not influenced”.

For [Cl-].[Cl-].[Mg+2] [Mg^2+], the “optimal concentration for full DNase γ activity” value (DNase γ) was 1 to 3 mM, the “DNase activity (%) α” value (DNase α; [4]) was 104% and the “effect of divalent cation on DNase α activity” value (DNase α) was “not influenced”. For the same molecule, the “DNase activity (%) β” value (DNase β; [4]) was 102% and the “effect of divalent cation on DNase β activity” value (DNase β) was “not influenced”.

With O=C(O)C1=CC(=C(c2ccc(O)c(C(=O)O)c2)c2ccc(O)c(C(=O)O)c2)C=CC1=O [aurintricarboxylic acid] the “DNase activity (%) γ” value (DNase γ; +aurintricarboxylate 30 μM) was 29%, the “DNase activity (%) γ” value (DNase γ; +aurintricarboxylate 100 μM) was 0% and the “inhibition of DNase γ activity” value (DNase γ; at a concentration of 100 μM) was “completely inhibited”. For the same molecule, the “inhibition of DNase α activity” value (DNase α) was “completely inhibited”, the “DNase activity (%) α” value (DNase α; [5]) was 32% and the “DNase activity (%) α” value (DNase α; [6]) was 0%. The “DNase activity (%) β” value (DNase β; [5]) was 0%, the “DNase activity (%) β” value (DNase β; [6]) was 0% and the “inhibition of DNase β activity” value (DNase β; at a concentration of 100 μM) was “completely inhibited”.

[Cl-].[Cl-].[Zn+2] [Zn^2+] was tested, and the “DNase activity (%) γ” value (DNase γ; +Zn2+ 0.1 mM) was 21%, the IC50 (DNase γ; increasing ZnCl2 in 50 mM MOPS-NaOH (pH 7.2), 3 mM CaCl2, 3 mM MgCl2, read-out: Inhibition by Zn2+: IC50) was 40 µM and the “DNase activity (%) α” value (DNase α; [7]) was 90%. For the same molecule, the IC50 (DNase α; [8]) was no less than 1000 µM, the “effect of Zn2+ on DNase α activity” value (DNase α; [9]) was “not influenced” and the “DNase activity (%) β” value (DNase β; [7]) was 93%. The IC50 (DNase β; [8]) was no less than 1000 µM and the “effect of Zn2+ on DNase β activity” value (DNase β; [9]) was “not influenced”.

B1: DNase γ: novel endonuclease of rat cell nuclei cleaving linker sites of chromatin DNA; SEQ ID NO: 1, amino acids 26-310 (protein)
chain: T1 sequence (O89107 26-310) with N163I, L218V
In the case of B1, the Divalent cation dependency [1] is reported as “Ca^2+ /Mg^2+, Mn^2+ dependent”, the “DNase activity (%)” value ([1]; -2-mercaptoethanol (deleted from optimal reaction mixture =100%)) is reported as 96% and the “DNase activity (%)” value ([1]; -Ca2+ (deleted from optimal reaction mixture =100%)) is reported as 1%. The “DNase activity (%)” value ([1]; -Mg2+ (deleted from optimal reaction mixture =100%)) was 16%, the “DNase activity (%)” value ([1]; -PMSF (deleted from optimal reaction mixture =100%)) was 94% and the DNA cleavage mode [2] was 3'-OH/5'-P termini and 3'--OH, 5'-P end forming type.
